Consider five compounds from patent US20230031954A1, “TETRACYCLINE COMPOUNDS AND METHODS OF TREATMENT” (Tetraphase Phamaceuticals, Inc., priority 2016, published 2023).

The test system of one test is MOLT4 cell line. As to the kind of experiment: Proliferation assay in MOLT4 cell line (CellTiterGlo, 72 hour). Type of test: cell-based. To be noted: Homo sapiens, MOLT-4, MOLT4 cells. How it is done: (§1) Compounds 1, 2, 3a, 4a and 5 as well as certain Compound included in FIGS. 15A-15M, 16A-16F and 17A-17D were tested in the following cell lines: MOLT4 and K562. Compounds 1, 2, 3a, 4a and 5 were also tested in the cell line HL60.
(§2) The MOLT4 cell line (CRL-1582™) and K562 cell line (CCL-243™) were obtained from American Type Culture Collection (ATCC). They were grown in a T-75 flask in RPMI Medium (GIBCO, Catalog No. 11875-093) containing 10% fetal bovine serum (ATCC, Catalog No. 30-2020) and penicillin-streptomycin (ATCC, Catalog No. 30-2300) at 37° C. in a humidified, 5% CO2 incubator. The HL60 cell line (CCL-240™) was obtained from American Type Culture Collection (ATCC). They were grown in a T-75 flask in DMEM Medium (GIBCO, Catalog No. 11965-092) containing 20% fetal bovine serum (ATCC, Catalog No. 30-2020) and penicillin-streptomycin (ATCC, Catalog No. 30-2300) at 37° C. in a humidified, 5% CO2 incubator.
(§3) 50 μL of cells (8,500 cells/well) were plated in a 96-well plate and incubated overnight at 37° C. in a humidified, 5% CO2 incubator. The next day, 50 μL of medium containing 3-fold serially diluted compounds in duplicate was added to the wells such that the starting concentration of the compound in the first pair of the wells was 10 μM. After 72 hour incubation with the compound, cell viability was measured in a luminometer after the addition of 100 μL/well CellTiterGlo reagent (Promega) as recommended by the manufacturer. The IC50 values for the compounds were calculated using SoftMax software.

For the next test, the system named is HL60 cell line. In words: Proliferation assay in HL60 cell line (CellTiterGlo, 72 hour). Type of test: cell-based. Conditions: Homo sapiens, HL-60, HL60 cells. How it is done:
as §1, §2, §3

The subject of a further test is MV4-11 cell line. As to the kind of experiment: MV4-11 anti-proliferation assay (CellTiterGlo, 72 hour). To be noted: Homo sapiens, MV4-11 cells. The test is classed as cell-based. Here is the method:
MV4-11 cell line (MV-4-11, CRL-9591™) was obtained from American Type Culture Collection (ATCC). Cells were grown in a T-75 flask in RPMI Medium (GIBCO, Catalog No. 11875-093) containing 10% fetal bovine serum (ATCC, Catalog No. 30-2020) and penicillin-streptomycin (ATCC, Catalog No. 30-2300) at 37° C. in a humidified, 5% CO2 incubator.
as §3, with “(10,000” for “(8,500”

The next test relates to K562 cell line. In words: Proliferation assay in K562 cell line (CellTiterGlo, 72 hour). Type of test: cell-based. Conditions: Homo sapiens, K562 cells. How it is done: as §1, §2, §3
Another test deals with THP-1 cells. As to the kind of experiment: THP-1 anti-proliferation assay (Cell Titer GLO, 72 hr). Type of test: cell-based. To be noted: Homo sapiens. Here is the method: The inhibition of eukaryotic cell culture growth was established using THP-1 cells (ATCC Cat. #TIB-202), a human acute monocytic leukemia cell line. These are suspension cells. This cell-based assay for eukaryotic culture growth inhibition was performed in 384-well plate format to determine the in vitro cytotoxicity of the test compounds.
Compounds were solubilized in water. Compounds were diluted 1:2 in assay media and 1:2 serial dilutions were performed in 50:50 media:water mix. The high dose was 40 μM, 10% water final. 5 μL of compound at 5× the final concentration was dispensed to the 384 assay plate. 20 μL of THP-1 cells were added.
Compounds were plated in dose response format (10% water final concentration), followed by the addition of cells. Cells were grown and incubated with compounds in RPMI-1640 medium/pen/strep/L-glutamine/10% FBS/2-mercaptoethanol for 72 hr at 37° C. with 5% CO2. At the end of the incubation time, cells were assayed for viability using Cell Titer GLO (Promega).

Test [1] deals with subcutaneous MV4-11 leukemia model. As to the kind of experiment: MV4-11 xenografts: in vivo anti-tumor efficacy in CB17 SCID mice. Further details: species or system mouse. To be noted: for tumor response: dosed at maximum tolerated dose, cytarabine 100 mg/kg I.P. QD, tigecycline 50 mg/kg I.P. BID. How it is done: The in vivo anti-tumor efficacy of Compounds 3a, 4a and 5 in the subcutaneous MV4-11 leukemia model in CB17 SCID mice was tested.
The MV4-11 cells (ATCC-CRL-9591) were maintained in vitro as a suspension culture at a density of 0.2-1.5×10^6 cells/ml in RPMI1640 medium supplemented with 10% heat inactivated fetal bovine serum, 100 U/ml penicillin and 100 μg/ml streptomycin at 37° C. in an atmosphere of 5% CO2 in air. The tumor cells were routinely subcultured twice weekly. The cells growing in an exponential growth phase were harvested and counted for tumor inoculation.
CB17 SCID, female, 6-8 weeks, weighing approximately 18-22 g.
Each mouse was inoculated subcutaneously at the right flank with MV4-11 tumor cells (10×10^6) in 0.2 ml of PBS (with Matrigel 1:1) for tumor development. The animals were randomized and treatment was started when the average tumor volume reached approximately 150-200 mm^3 for the efficacy study. The test article administration and the animal numbers in each group are shown below.
The major endpoint monitored was tumor growth delay or cure. Tumor sizes were measured twice weekly in two dimensions using a caliper, and the volume expressed in mm^3 using the formula: V=0.5 a×b^2 where a and b are the long and short diameters of the tumor, respectively. The tumor sizes were then used for the calculations of both T-C and T/C values. T-C is calculated with T as the median time (in days) required for the treatment group tumors to reach a predetermined size (e.g., 1,000 mm^3), and C is the median time (in days) for the control group tumors to reach the same size. […]
TGI was calculated for each group using the formula: TGI (%)=[1−(Ti−T0)/(Vi−V0)]×100; Ti is the average tumor volume of a treatment group on a given day, T0 is the average tumor volume of the treatment group on the first day of treatment, Vi is the average tumor volume of the vehicle control group on the same day with Ti, and V0 is the average tumor volume of the vehicle group on the first day of treatment.

In test [2] the test system is AML ex-vivo bone marrow samples. As to the kind of experiment: Antiproliferative activity against 15 AML ex-vivo bone marrow samples (Vivia's Native Environment cell depletion assay). Conditions: 48 hours post drug exposure. The test is classed as cell-based, human. How it is done:
Antiproliferative activity of Compound 3a and cytarabine was measured against 15 AML ex-vivo bone marrow samples (including two cytarabine-resistant samples). The assay used was Vivia's Native Environment cell depletion assay. An outline of the study is below: • Five different concentrations of each drug was used as a monotherapy • The incubation time point for measurement was 48 hours post drug exposure The results are shown graphically in FIG. 6.

The test system of test [3] is mitochondrial protein synthesis. In words: Intact isolated rat heart mitochondrial protein synthesis assay ([S35]-methionine incorporation). Type of test: biochemical. To be noted: isolated rat heart mitochondria, 0.15 to 40 μM; read-out: dose-response curve IC50, mitochondrial protein synthesis. How it is done:
The effect of Compound 3a on mitochondrial protein synthesis was determined using an intact isolated rat heart mitochondrial protein synthesis assay previously described [See, 1, 2 below]. Intact, highly coupled mitochondria isolated from normal rat hearts were incubated in an incubation medium containing [S^35]-methionine. The compounds were diluted to generate a final dose-response curve from 0.15 to 40 μM. The rate of incorporation of [S^35]-methionine into protein was measured at 20, 40, and 60 minutes of incubation for each sample using a filter paper disc assay and expressed as pmol methionine incorporated per mg mitochondrial protein as described [1, 2, 3 below]. The time course data for control and all drug concentrations were nearly linear. The slope of each time-course data plot is calculated as the least squares best fit line through zero and the three time points for each sample. The rate of protein synthesis varies modestly with each mitochondrial preparation (mean and SEM=20.3+/−2.4 pm/mg protein). To normalize for this variability, the rates were expressed as a percent of the rate of the control line for each preparation of mitochondria.
Each experiment was repeated three times.
Dose-response curves were obtained by expressing the percent of control obtained for each concentration of Compound 3a against the concentration of Compound 3a. […]

The structures appear in SMILES notation.

For `CCN[C@@H]1C(O)=C(C(N)=O)C(=O)[C@@]2(O)C(O)=C3C(=O)c4c(O)cc([C@@H]5CCCN5CC)c(OC)c4C[C@H]3C[C@@H]12` (single isomer, unassigned) [Compound 4a], the concentration for half-maximal inhibition (IC50) came to 0.13 µM in the test on MOLT4 cell line; 0.41 µM in the test with HL60 cell line; 0.13 µM in the test with MV4-11 cell line; 0.13 µM in the test with K562 cell line; 0.9 µM in the test on THP-1 cells.

For the compound `CCN1CCC[C@H]1c1cc(O)c2c(c1OC)C[C@H]1C[C@H]3[C@H](N)C(O)=C(C(N)=O)C(=O)[C@@]3(O)C(O)=C1C2=O` [Compound 3a], the tumor shrinkage in test [1] (all animals treated, 12.5 mg/kg I.P., dose 1 and dose 2 of Table 1C) is not below 70%. Also, the 50% inhibitory concentration (IC50) in the test on MOLT4 cell line amounted to 0.12 µM; in the test with HL60 cell line it was 0.37 µM; with MV4-11 cell line, 0.1 µM; in test [3], 700 nM; in the test with K562 cell line, 0.11 µM; with THP-1 cells it was 0.75 µM. For the same compound, in test [2] (monotherapy), the “ex vivo activity against the tumor cells from frozen bone marrow of the AML patients” value was “potent ex vivo activity”. For the same compound, the EC50 in test [2] (Homo sapiens, 15 AML ex-vivo bone marrow samples) turned out to be 170 nM.

Turning to `NC(=O)C1=C(O)[C@@H](N)[C@@H]2C[C@@H]3Cc4c(F)cc(NC(=O)CN5CCCC5)c(O)c4C(=O)C3=C(O)[C@]2(O)C1=O` [Compound 5], the IC50 in the test on MOLT4 cell line came to 0.13 µM; in the test with HL60 cell line, 0.51 µM; in the test with MV4-11 cell line, 0.17 µM; with K562 cell line, 0.16 µM; in the test with THP-1 cells it was 0.64 µM.

`Nc1ccn([C@@H]2O[C@H](CO)[C@@H](O)[C@@H]2O)c(=O)n1` [Cytarabine]: the tumor response result in test [1] is “no tumor response”.

For the compound `CN(C)c1cc(NC(=O)CNC(C)(C)C)c(O)c2c1C[C@H]1C[C@H]3[C@H](N(C)C)C(O)=C(C(N)=O)C(=O)[C@@]3(O)C(O)=C1C2=O` [Tigecycline, tigecycline, reference compound], the tumor response entry in test [1] is recorded as “no tumor response”. For the same compound, the IC50 in the test on MOLT4 cell line turned out to be 5.1 µM; in the test on HL60 cell line, 15.4 µM; in the test on MV4-11 cell line, 4.64 µM; in the test on K562 cell line, 7.2 µM; in the test with THP-1 cells, 29.1 µM.
